“Also recorded” adds a separate entry of the source. Like-named read-outs stand apart in the source and are kept apart here.
Assays:
[1] = Cell toxicity (MTT) in hAEC; settings: human
MERS-CoV [2] = experiment: microbe, parasite or virus in culture; assay type: cell-based, MERS-CoV (EMC/2012)
rhinovirus A1 = experiment: organism not typed; assay type: cell-based, human Rhinovirus 1A (HRV1A); settings: for EC50: MRC5, 24 h
primary macrophages = experiment: WST-1 viability assay of primary macrophages
[3] = tested on: 5'-UTRs of all seven EBOV mRNAs; assay type: cell-based
EBOV NP protein = assay type: cell-based, Zaire Ebola virus (EBOV) strain Mayinga
HCoV-229E [4] = experiment: microbe, parasite or virus in culture; assay type: cell-based, Human Coronavirus 229E (HCoV-229E); settings: Human coronavirus 229E
5'-UTRs of Ebola mRNAs = experiment: cells; assay type: cell-based, EBOV; settings: for inhibition at 0.01 µM: Zaire ebolavirus
MERS-CoV [5] = experiment: microbe, parasite or virus in culture; assay type: cell-based, MERS-CoV (EMC/2012); remark: listed apart in the source
[6] = tested on: HCoV-229E proteins N and nsp8; experiment: Westernblot analysis, Method 2, HCoV-229E proteins N and nsp8; assay type: cell-based
[7] = tested on: EBOV proteins VP40, NP and GP; assay type: cell-based, Zaire Ebola virus (EBOV) strain Mayinga
HCoV-229E [8] = experiment: microbe, parasite or virus in culture; assay type: cell-based, Human Coronavirus 229E (HCoV-229E)
poliovirus [9] = experiment: microbe, parasite or virus in culture; assay type: cell-based, Poliovirus Typ 1 (strain Mahoney; PV)
in vitro = settings: human
Huh-7 cells [10] = experiment: WST-1 proliferation assay of Huh-7 cells
[11] = tested on: proto-oncogenic kinase PIM1; experiment: Westernblot of PIM1 in primary macrophages; assay type: cell-based, human
Huh-7 cells [12] = experiment: Cell morphology of Huh-7 cells by light microscopy; assay type: cell-based, human; settings: 10 nM, three days
[13] = Cell toxicity (MTT) in PBMCs; settings: human
poliovirus [14] = experiment: microbe, parasite or virus in culture; assay type: cell-based, Poliovirus Typ 1 (strain Mahoney; PV); settings: Enterovirus C
viral dsRNA and nsp8 = experiment: Immunofluorescence of replication/transcription complexes in HCoV-229E infected MRC-5 cells; assay type: cell-based; settings: MOI 3, 12 h p.i.
EBOV [15] = assay type: cell-based, Zaire Ebola virus (EBOV) strain Mayinga
Coronaviruses = experiment: organism not typed; assay type: cell-based; settings: MRC5, read-out: EC50-values
EBOV [16] = assay type: cell-based, Zaire Ebola virus (EBOV) strain Mayinga; remark: listed apart in the source
5'-UTR from HCoV-229E = assay type: cell-based
5'-UTR from MERS-CoV = assay type: cell-based
Rhinovirus 1A = experiment: microbe, parasite or virus in culture; assay type: cell-based, human Rhinovirus 1A (HRV1A); settings: for EC50: Enterovirus, HeLa

In the case of `COC(=O)[C@H]1[C@@H](O)[C@@]2(O)c3c(OC)cc(O[C@@H]4O[C@@H]([C@H](O)CO)CO[C@H]4OC)cc3O[C@@]2(c2ccc(OC)cc2)[C@@H]1c1ccccc1` [Silvestrol], the CC50 at 48 h [1] is reported as 0.5 µM, the “selectivity index (CC50/EC50)” value (MERS-CoV [2]) is reported as 1538 and the EC50 (MERS-CoV [2]; Middle East respiratory syndrome-related coronavirus, MRC5, 24 h) is reported as 0.0013 µM. For the same compound, the “fold less sensitive compared to the analyzed coronaviruses” value (rhinovirus A1) was “about 100 fold”, the EC50 (rhinovirus A1) was 0.1 µM and the EC50 (rhinovirus A1; Rhinovirus A) was 0.1 µM. The IC50 (primary macrophages; Homo sapiens, Primary macrophage, 72 h, read-out: IC50 (WST-1 viability assay), primary macrophages, 0.1 nM - 10 µM, 72 h) was about 0.096 µM, the “concentration with essentially no sign of toxicity” value (primary macrophages; primary macrophages, WST-1) was “at least 50 nM” and the “inhibition of firefly luciferase activity” value [3] was 23-33%. For the same compound, the “reduction of firefly luciferase activity” value [3] was “no significant reduction”, the “expression level of the EBOV NP protein” value (EBOV NP protein) was “potent downregulation; also recorded: strongly decreased levels” and the EC50 (HCoV-229E [4]; Huh-7) was 0.04 µM. The EC50 (HCoV-229E [4]; Huh-7, 24 h, read-out: effective dose (EC50)) was 0.04 µM, the “effect on IRES-driven renilla luciferase activity” value (5'-UTRs of Ebola mRNAs) was “no obvious effect” and the inhibition at 0.01 µM (5'-UTRs of Ebola mRNAs; HepG2, read-out: inhibitory effect on firefly luciferase activity) was 80%. For the same compound, the inhibition at 0.01 µM (5'-UTRs of Ebola mRNAs; HepG2, read-out: inhibitory effect on luciferase levels) was 30%, the selectivity index (MERS-CoV [5]) was 166 and the EC50 (MERS-CoV [5]; Middle East respiratory syndrome-related coronavirus, Epithelial cell, 48 h) was 0.003 µM. The “level of N-protein” value ([6]; HCoV-229E infected primary MRC-5 cells, 10 nM, 12 h and 48 h p.i.) was “disappears”, the “HCoV-229E proteins N and nsp8” value ([6]; Huh-7 infected cells, 10 nM) was “detectable” and the N-protein ([6]; Huh-7 infected cells, 100 nM) was “only very low amounts”. The nsp8 ([6]; Huh-7 infected cells, 100 nM) was “completely absent”, the “EBOV protein VP40 levels” value [7] was “strong reduction of VP40 levels; also recorded: inhibits the expression” and the “EBOV proteins NP and GP levels” value [7] was “Downregulation”. The “cellular protein tubulin level” value [7] was “not affected”, the “EC50 fold lower in MRC-5 cells compared to infected Huh-7 cells” value (HCoV-229E [8]) was “about 10 fold” and the “selectivity index (CC50/EC50)” value (HCoV-229E [8]) was 566. For the same compound, the EC50 (HCoV-229E [8]; Human coronavirus 229E, MRC5, 24 h) was 0.003 µM, the “fold less sensitive / less efficient compared to MERS-CoV and HCoV-229E” value (poliovirus [9]) was “about 10 fold” and the EC50 (poliovirus [9]; Enterovirus C, MRC5, 24 h) was 0.02 µM. For the same compound, the CC50 (in vitro; CC50) was 1.7 µM, the CC50 (in vitro; CC50 / cell toxicity) was over 1 µM and the “effect on proliferation of Huh-7 cells” value (Huh-7 cells [10]; higher concentrations up to 100 nM, compared to DMSO control) was “weakly affected; also recorded: weak effects on proliferation”. For the same compound, the “effect on proliferation of Huh-7 cells” value (Huh-7 cells [10]; up to 10 nM Silvestrol, WST-1, 48 h) was “no obvious effects on proliferation; also recorded: No effect of Silvestrol on proliferation”, the PIM1 levels ([11]; primary macrophages, 10 nM) was “strongly decreased levels” and the “duration of inhibitory effect on PIM1 levels” value ([11]; single dose 10 nM, macrophages) was “at least 5 days”. For the same compound, the “cellular β-Actin levels” value ([11]; single dose 10 nM, macrophages, up to 5 days) was “without affecting cellular β-Actin levels”, the cell morphology (Huh-7 cells [12]) was “without changing cell morphology” and the CC50 [13] was 0.4 µM. For the same compound, the EC50 (poliovirus [14]; Vero C1008) was about 0.1 µM, the EC50 (poliovirus [14]; Vero C1008, 24 h, read-out: effective dose (EC50)) was 0.1 µM and the “levels of double-stranded viral RNA and nsp8 (RTC markers)” value (viral dsRNA and nsp8; 10 nM) was “drop down”. The “levels of double-stranded viral RNA and nsp8 (RTC markers)” value (viral dsRNA and nsp8; 100 nM) was “nearly no viral dsRNA or nsp8 can be detected”, the “reduction of viral titers” value (EBOV [15]) was “up to two orders of magnitude” and the EC50 (Coronaviruses) was 0.001 to 0.003 µM. For the same compound, the “antiviral effect (EBOV titer)” value (EBOV [16]) was “comparable antiviral effect”, the “inhibition of EBOV infection (viral titers)” value (EBOV [16]) was “substantially inhibits EBOV infection; also recorded: inhibits viral propagation efficiently; also recorded: strongly inhibits EBOV replication” and the “decrease of luciferase activity” value (5'-UTR from HCoV-229E) was about 40%. For the same compound, the “decrease of luciferase activity” value (5'-UTR from MERS-CoV) was about 40%, the “EC50 fold higher compared to HCoV-229E in Huh-7” value (Rhinovirus 1A) was “about 10 fold” and the EC50 (Rhinovirus 1A) was 0.4 µM. For the same compound, the EC50 (Rhinovirus 1A; 24 h, read-out: effective dose (EC50)) was 0.4 µM.

From patent EP3305290B1, “[…] […] FOR USE IN THE TREATMENT OF VIRAL INFECTIONS” (priority 2016, dated 2018)
